# According to patent publication US9399032B2, “Methods and compositions for treating degenerative and ischemic disorders” (The General Hospital Corporation, priority 2009, dated 2016):
# Counter-ions that a name gives are not always drawn. Like-named read-outs stand apart in the source and are kept apart here.
# Legend:
# [1] = tested on: Adult rat ventricular cardiomyocytes; test: Simulated ischemia-reperfusion injury in isolated cardiomyocytes; assay type: cell-based; conditions: 60 minutes ischemia, 30 minutes reperfusion
# Description: The ability of meclizine to protect isolated cardiomyocytes and isolated hearts from ischemic injury was investigated as follows Adult rat ventricular cardiomyocytes were isolated by endotoxin-free collagenase perfusion, and the simulated ischemia-reperfusion injury was performed as previously described (Wojtovich and Brookes, Basic Res. Cardiol., 104:121-129 (2009)). Control cells were exposed to DMSO for 20 minutes. Test cells were exposed to either vehicle or doses of meclizine for 20 minutes, which was washed out before being subjected to ischemia for 60 minutes followed by reperfusion for 30 minutes under normoxic conditions in normoxic glucose-replete buffer at pH 7.4. Cell viability was assayed by Trypan blue exclusion. VO2 was assessed by isolating mitochondria and measuring both respirating cells and mitochondria using a Clark oxygen electrode (Wojtovich, supra).
# isolated mitochondria = test: Effect of phosphoethanolamine on uncoupled respiration of isolated mitochondria; assay type: biochemical; conditions: ~1 min incubation, 1 μM CCCP
# Description: Mitochondria were isolated from C57BL/6 mouse kidneys by differential centrifugation and resuspended in experimental buffer to a final concentration of 0.15 mg/ml. Mootha et al., Am J Physiol 272:H769 (1997). State 2 respiration was initiated with the addition of 2.5 mM glutamate and 2.5 mM malate. State 3 respiration was initiated with the addition of 50 nmoles ADP. […] O2 consumption was monitored with a Fiber Optic Oxygen sensor probe from Ocean Optics, and NADH (endogenous, 370±7 nm excitation, 440±4 nm emission) and membrane potential (1.25 μM TMRM, 546±7 nm excitation, 590±4 nm emission) were measured with a Perkin-Elmer LS50B fluorimeter. A representative trace is shown from 6 independent experiments. 1M stock of phosphoethanolamine (Sigma P0503) was made in sterile water and pH was adjusted to 7.4 by 1N potassium hydroxide solution.
# The upregulation of phosphoethanolamine was confirmed by orthogonal chromatography, as well as via ^31P-NMR. […] Previous studies have shown that phosphoethanolamine can be elevated in tumor cells, and that ethanolamine and PEA can directly silence mitochondrial OXPHOS. Zhu et al., J Lipid Res 49: 2197 (2008); and Modica-Napolitano et al., Biol Psychiatry 55:273 (2004). […]
# human H 1 receptor = human H 1 receptor (Homo sapiens, UniProt P35367); test: H1 receptor competitive binding assay with [3H]pyrilamine; conditions: 3 nM [3H]pyrilamine
# Description: The ability of each enantiomer to bind to the H1 receptor was evaluated using a competitive binding experiment with the racemate. In vitro binding of R-meclizine (R-Mec) and S-meclizine (S-Mec) to human H 1 receptor was determined by competitive binding assays in the presence of 3 nM [3H]pyrilamine. Non-specific binding was determined in the presence of excess (1 μM) unlabeled Pyrilamine. IC50 were determined by non-linear regression analysis of the competition curves.
# AMPK = test: Western blot detection of AMPK phosphorylation; assay type: cell-based; conditions: C2C12 myotubes, 24 hours of treatment
# Description: The ability of meclizine, S-meclizine and R-meclizine to activate AMPK in C2C12 myotubes was also evaluated using Western blot detection of AMPK phosphorylation in C2C12 myotubes following 24 hours of treatment with R-meclizine (R-Mec), S-meclizine (S-Mec) and the racemic mixture (Rac-Mec).
# [2] = tested on: STHdhQ111/111 striatal cells; test: Viability of mutant huntingtin striatal cells after serum withdrawal (CellTiter-Glo); assay type: cell-based, murine; conditions: serum free media, 24 hours
# Description: Wherever indicated, mutant (STHdh^Q111/111) striatal cells were grown in serum free media for ˜24 hours before ATP measurement. Luminescence was measured in DTX880 multimode detector. Multiple concentrations (between 100 μM and 0.5 μM) of rotenone, antimycin, oligomycin, meclizine, hydroxyzine (Spectrum chemical), thiethylperazine (Prestwick), cyproheptadine (Sigma), pyrilamine (Spectrum chemical), tripelennamine (Spectrum chemical), diphenhydramine (Spectrum chemical), clemastine (Prestwick), bromopheniramine (Spectrum chemical), pheniramine (Spectrum chemical), promethazine (MSDiscovery 01500510), atropine (Sigma), and scopolamine (Sigma) were tested for their protective effect on STHdh^Q111/111 cells in serum free media. The dose which conferred maximum protection is shown. Luminescence was measured in DTX880 multimode detector.
# Although it is not necessary to understand the mechanism of an invention, it is believed that the observed cell survival may be due to suppressed apoptosis based on caspase 3 and 7 cleavage. Improved cell viability was confirmed by microscopy.
# [3] = tested on: C. elegans expressing 128Q huntingtin fragment in touch receptor neurons; conditions: even lower doses; cited from earlier work
# MCH58 fibroblasts [4] = conditions: 72 h, 10 µM
# Description: (§1) The assay included monitoring or measuring cell growth in cells that are grown in glucose (which allows the cell to utilize glycolysis) or in galactose (which switches the cell energy production from glycolysis to the OXPHOS pathway).
# (§2) The high glucose medium was replaced with 10 mM glucose or 10 mM galactose wherever indicated. All media contained 1 mM pyruvate and 4 mM glutamine.
# (§3) Cell number quantification high throughput assays were performed as follows. […] 24 hours later, cells were washed twice in PBS and media was replaced with either 10 mM glucose or 10 mM galactose containing media.
# (§4) Approximately 100 nL of each compound was pin-transferred in duplicate into the plates with a steel pin array using the CyBi-Well robot (CyBio). […] Compound-treated plates were incubated at 37° C. for 72 hours. […] Wells were then washed once and stored in PBS. Cell culture plates were stored at 4° C. until time of imaging, which was at most 24 hours after fixation.
# (§5) Imaging was performed by Arrayscan VTi automated microscope (ThermoFisher Scientific) with the use of an automated plate stacker. Appropriate filter sets for the detection of the Hoescht fluorescent signal were used. Four non-overlapping images at 5× magnification (NA 0.25) were acquired for a field of view of 1.3 mm×1.3 mm per image. The plate stacker and microscope including an auto-focusing algorithm were controlled entirely with ArrayScan software. Images were captured and stored simultaneously in at least two independent locations. Image analysis was performed using the freely available open-source software package CellProfiler. […] Images were analyzed individually by first identifying nuclei using the Hoescht staining signal.
# (§6) Total number of nuclei per field were recorded, and the four images per well were totaled to give the cell count per well. Computation was performed using a UNIX computer cluster. Appropriate masking of each nucleus was ensured by visually monitoring each batch at its onset and intermittently throughout the run.
# (§7) The fibroblast cells were seeded on Day 0 and incubated for 24 hours in standard culture media.
# (§8) Normalized cell counts were computed separately for each 96-well plate by dividing the cell count of each well with the trimmed mean (the average after discarding the largest and smallest value) of the cell counts for the 16 DMSO treated wells. […] The remaining replicate measurements were averaged, and fold changes were computed as the ratio between the average normalized counts for the glucose and galactose screens. To evaluate statistical significance, Z-scores were computed for each well against the DMSO (null) distribution and averaged Z-scores across replicates. Wells with average Z-score greater than 2.5 were considered significant.
# (§9) By jointly analyzing the glucose and galactose results, a glucose-galactose cell growth ratio can be calculated (Sglu/gal) that represents the log10 fold-change in cell growth in a glucose rich media divided by the log10 fold-change in cell growth in a galactose rich media. […] Low Sglu/gal scores (e.g., ranging between approximately (−) 0.1 to (−) 0.7) may arise from inhibition of glycolysis or from inhibition of proliferation, since cells grown in glucose-rich media divide more rapidly.
# MCH58 fibroblasts [5] = test: Glucose versus galactose cell growth screen (metabolic state-dependent lethality); conditions: for Sglu/gal (log10 fold change) Score: approximately 10 μM compound, 72 hours, log10 fold change of normalized cell number in glucose versus galactose
# Description: as §1, §2, §3, §4, §5, §6, §7, §8, §9
# [6] = tested on: purified recombinant PCYT2; test: PCYT2 enzyme assay in vitro; assay type: biochemical; conditions: 50-1000 μM meclizine or 50-600 μM S-meclizine
# Description: FIGS. 16 C-D are line graphs showing that PCYT2 (CTP:phosphoethanolamine cytidylyltransferase 2) is a target of meclizine (16C) and S-meclizine (16D). PCYT2 enzyme assays were carried out in vitro with purified recombinant PCYT2 in the presence of 50-1000 μM meclizine or 50-600 μM of S-meclizine.
# CTP:Phosphoethanolamine Cytidylyltransferase (PCYT2) catalyzes the formation of CDP-ethanolamine, which is often the rate regulatory step in the PE-Kennedy pathway. See, e.g., Fullerton et al., J Biol Chem 18; 284(38):25704-13 (2009). To determine whether meclizine affects PCYT2 activity, PCYT2 (CTP:phosphoethanolamine cytidylyltransferase 2) enzyme assays were carried out in vitro with purified recombinant PCYT2 in the presence of 50-1000 μM meclizine or 50-600 μM of S-meclizine. For additional details see Zhu et al., J Lipid Res 49: 2197 (2008).
# C2C12 myotubes = test: [3H]-2-deoxyglucose uptake; assay type: cell-based; conditions: 50 micromolar, four hours
# Description: Fully differentiated C2C12 myotubes were subjected to a glucose uptake protocol, as follows. Briefly, C2C12 myotube cells were incubated for four hours in serum-free media containing either 0.1% DMSO as a control, 50 micromolar meclizine, 50 micromolar S-meclizine, or 2 mM metformin. Cells were subsequently incubated for thirty minutes in serum and glucose free buffer and then transitioned to buffer containing [3H]-2-deoxyglucose for five minutes. After multiple wash steps, cells were lysed and the lysate was subjected to scintillation counting to quantify uptake. Data were prepared as raw counts per minute, which is proportional to 2-deoxyglucose uptake.
# Sequence of human H 1 receptor (P35367 whole entry): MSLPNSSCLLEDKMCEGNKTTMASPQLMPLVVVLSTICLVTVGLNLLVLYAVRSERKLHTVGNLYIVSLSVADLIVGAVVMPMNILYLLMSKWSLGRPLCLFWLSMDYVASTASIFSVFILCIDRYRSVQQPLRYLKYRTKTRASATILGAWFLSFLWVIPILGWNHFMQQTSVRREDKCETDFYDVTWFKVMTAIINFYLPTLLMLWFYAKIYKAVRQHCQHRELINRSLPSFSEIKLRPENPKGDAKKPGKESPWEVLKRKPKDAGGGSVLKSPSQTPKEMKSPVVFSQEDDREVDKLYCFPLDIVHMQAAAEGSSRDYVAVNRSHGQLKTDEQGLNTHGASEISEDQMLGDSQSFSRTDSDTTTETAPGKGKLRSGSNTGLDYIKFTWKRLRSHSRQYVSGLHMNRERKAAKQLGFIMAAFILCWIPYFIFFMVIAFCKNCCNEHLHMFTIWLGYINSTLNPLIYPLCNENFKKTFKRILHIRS
Compound,Sglu/gal (log10 fold change) Score (MCH58 fibroblasts [5]),other results
CN1[C@@H]2CC[C@H]1C[C@@H](OC(=O)C(CO)c1ccccc1)C2 (stereo partly shown) [atropine],–,"protection of cardiomyocytes against I/R (cell viability, Trypan blue) [1]: not observed"
CN(C)CCC(c1ccccc1)c1ccccn1 (stereo not shown) [pheniramine],–,"protection of cardiomyocytes against I/R (cell viability, Trypan blue) [1]: not observed"
"NCCOP(=O)(O)O [PEA, phosphoethanolamine]",–,uncoupler-stimulated respiration in isolated mitochondria (isolated mitochondria): blocks uncoupler-stimulated respiration
Cc1cccc(CN2CCN([C@H](c3ccccc3)c3ccc(Cl)cc3)CC2)c1 [R-meclizine],–,affinity on the H1 receptor (human H 1 receptor): high affinity; AMPK activation (phosphorylation) (AMPK): activate AMPK
C=C(C)[C@H]1Cc2c(ccc3c2O[C@@H]2COc4cc(OC)c(OC)cc4[C@@H]2C3=O)O1 [rotenone],–,protection of STHdhQ111/111 cells after serum withdrawal [2]: rescue; toxicity in worms (Varma et al.) [3]: strong developmental delay with severe toxicity
COc1ccc2c(c1)O[C@@H]1COc3cc(OC)c(OC)cc3[C@@H]1C2=O [Mundoserone],–,Sglu/gal (log10 fold change) Score (MCH58 fibroblasts [4]): 0.57
CN1[C@@H]2C[C@@H](OC(=O)[C@H](CO)c3ccccc3)C[C@H]1[C@@H]1O[C@@H]12 [scopolamine],–,"protection of cardiomyocytes against I/R (cell viability, Trypan blue) [1]: not observed"
COc1ccc(CN(CCN(C)C)c2ccccn2)cc1 [pyrilamine],–,"protection of cardiomyocytes against I/R (cell viability, Trypan blue) [1]: not observed"
C[C@H]1CC[C@]2(NC1)O[C@H]1C[C@H]3[C@@H]4CC[C@H]5C[C@@H](O[C@@H]6O[C@H](CO)[C@H](O[C@@H]7O[C@H](CO)[C@@H](O)[C@H](O[C@@H]8OC[C@@H](O)[C@H](O)[C@H]8O)[C@H]7O[C@@H]7O[C@H](CO)[C@@H](O)[C@H](O)[C@H]7O)[C@H](O)[C@H]6O)CC[C@]5(C)[C@H]4CC[C@]3(C)[C@H]1[C@@H]2C [tomatine],−0.64,–
COC(=O)[C@]1(C)CC[C@]2(C)CC[C@]3(C)C4=CCc5c(cc(O)c(O)c5C)[C@]4(C)CC[C@@]3(C)[C@@H]2C1 [pristimerol],−0.45,–
CC(=O)O[C@@H]1C[C@@]2(C)[C@H](c3ccoc3)C[C@H]3O[C@]32[C@]2(C)C(=O)C(O)=C3C(C)(C)C(=O)C=C[C@]3(C)[C@@H]12 [anthothecol],−0.30,–
CNCCC=C1c2ccccc2CCc2ccccc21 [nortriptyline],–,inhibitory activity against cell growth in galactose (SAR analysis) (MCH58 fibroblasts [5]; galactose versus glucose): moderate inhibitory activity
Deguelin(-),0.69,–
CC[C@@]1(O)C(=O)OCc2c1cc1n(c2=O)Cc2cc3ccccc3nc2-1 [camptothecin],−0.26,–
COc1cc(C(=O)O)c2c(c1C)OC(=O)c1c(C)cc(O)c(C=O)c1O2 [Psoromic acid],0.35,–
CCCCCCCCCCCCCCCC[N+](C)(C)CCN(Cc1ccc(OC)cc1)c1ncccn1 [Thonzonium bromide],0.38,–
CC(=O)O[C@H]1C(=O)[C@@]2(C)[C@H]([C@H](OC(=O)c3ccccc3)[C@]3(O)C[C@H](OC(=O)[C@H](O)[C@@H](NC(=O)c4ccccc4)c4ccccc4)C(C)=C1C3(C)C)[C@]1(OC(C)=O)CO[C@@H]1C[C@@H]2O [paclitaxel],−0.22,–
CN[C@H]1CC[C@@H](c2ccc(Cl)c(Cl)c2)c2ccccc21 [Sertraline hydrochloride],0.15,–
C[C@]12CC[C@H](O)C[C@H]1CC[C@@H]1[C@@H]2[C@H](O)C[C@]2(C)[C@@H](C3=CC(=O)OC3)CC[C@]12O [sarmentogenin],−0.21,–
"COc1cc2c(cc1OC)[C@@H]1C(=O)c3ccc(OC)c(CC=C(C)C)c3O[C@@H]1CO2 [Rotenonic acid, methyl ether]",0.34,–
OC(c1cc(C(F)(F)F)nc2c(C(F)(F)F)cccc12)C1CCCCN1 (stereo not shown) [Mefloquine],0.20,–
"Cc1cccc(CN2CCN([C@@H](c3ccccc3)c3ccc(Cl)cc3)CC2)c1 [S-meclizine, S-Meclizine]",–,"protection of STHdhQ111/111 cells after serum withdrawal [2]: is protective; PCYT2 binding and inhibition [6]: binD to, and inhibit; affinity on the H1 receptor (human H 1 receptor): much weaker affinity; AMPK activation (phosphorylation) (AMPK): activate AMPK; basal glucose uptake (C2C12 myotubes): promoted increased basal glucose uptake"
O=c1[nH]c2ccccc2n1C1CCN(CCCC(c2ccc(F)cc2)c2ccc(F)cc2)CC1 [Pimozide],0.18,–
COc1cc2c(cc1OC)C1C(=O)c3c(cc4c(c3O)C=CC(C)(C)O4)OC1CO2 (stereo not drawn) [Beta-toxicarol],0.82,–
CC[C@@]1(O)C[C@H](O[C@H]2C[C@H](N(C)C)[C@H](O)[C@H](C)O2)c2c(cc3c(c2O)C(=O)c2c(O)ccc(O)c2C3=O)[C@H]1C(=O)OC [pyrromycin],−0.30,–
Clofilium tosylate,0.42,–
picropodophyllotoxin acetate,−0.24,–
CC(C)=CCC[C@]1(C)C=Cc2c(O)c3c(c(CC=C(C)C)c2O1)O[C@]12C(=C[C@@H]4C[C@H]1C(C)(C)O[C@@]2(C/C=C(/C)C(=O)O)C4=O)C3=O [gambogic acid],−0.34,–
